For one data set, the target named is T1, ADRA2A (Homo sapiens, UniProt P08913).
T1 construct: host or cells: cAMP Hunter cell line
The data set is described as follows: ADRA2A GPCR cAMP modulation assay. Conditions: compared to the controls. The format is cell-based. As to the method:
(§1) GPCR cAMP Modulation Assays: cAMP Hunter cell lines were grown, plated, and subjected to Eurofins’ DiscoverX HitHunter cAMP XS+ assay. Gs agonist activity, Gi agonist activity, and antagonist activity-induced assays were read using chemiluminescent signal detection. The percentage of activity was calculated for Gs and Gi agonist assays, and the percentage of inhibition was calculated for Gs antagonist assays. […]
(§2) cAMP Second ary Messenger Assay pound results in the release of calcium from intracellular stores and DiscoverX has developed a panel of cell lines stably expressing non- an increase in dye fluorescence that is measured in real-time. tagged GPCRs that endogenously signal through cAMP. […]
(§3) The enzyme is split into two complementary portions: Enzyme Ac-ceptor (EA) and Enzyme Donor (ED). […] Active enzyme can then convert a chemilumines-cent substrate, generating an output signal detectable on a standard The NHR is tagged with the ProLink™ (PK) component of our EFC microplate reader. assay system, and the SRCP domain is fused to the Enzyme Ac-ceptor component (EA) expressed in the nucleus. […]

For another data set, the target named is OPRM1 (Homo sapiens, UniProt P35372). Nature of the data set: OPRM1 GPCR cAMP modulation assay. The class given is cell-based. Here is the method: as §1, §2, §3
Sequence of OPRM1 (P35372 whole entry): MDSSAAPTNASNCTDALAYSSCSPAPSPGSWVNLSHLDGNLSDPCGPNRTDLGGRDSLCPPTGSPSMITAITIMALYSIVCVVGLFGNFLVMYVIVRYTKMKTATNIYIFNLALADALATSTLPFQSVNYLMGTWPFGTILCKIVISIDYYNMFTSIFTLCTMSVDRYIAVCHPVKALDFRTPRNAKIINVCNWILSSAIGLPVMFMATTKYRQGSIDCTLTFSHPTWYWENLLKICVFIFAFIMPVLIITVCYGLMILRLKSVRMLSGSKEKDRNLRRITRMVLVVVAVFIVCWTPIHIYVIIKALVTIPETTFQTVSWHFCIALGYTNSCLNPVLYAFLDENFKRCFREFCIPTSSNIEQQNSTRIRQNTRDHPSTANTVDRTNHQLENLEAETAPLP
Another data set deals with B6-wildtype mice. The data set is described as follows: Blood pressure pre- and post-CTP injection. The format is in vivo, mouse. Conditions: CTP 10 mg/Kg i.v.; 6 h post-injection vs pre-injection; six mice, isoflurane. Here is the method:
Blood Pressure Pre- and Post-CTP Injection: Six B6-wildtype mice were obtained from the Jackson Laboratory. Blood pressure was taken using a non-invasive blood pressure system from Kent Scientific. Mice were anesthetized using 2.5% isoflurane exposure for 5 min, placed in a tube holder, and warmed using a warming blanket for approximately 15 min before their tails were fitted with blood pressure cuffs. A total of 21 blood pressure readings were taken, and average systolic and diastolic blood pressure calculated. After baseline blood pressure was established, mice were injected intravenously with 10 mg/Kg of CTP, and blood pressure was measured again 6 h post-injection.

The next data set deals with HEK-Cav1.2 (Homo sapiens, UniProt Q13936). The conditions noted are these: CTP 0.1 to 30 µM; HEK cells; -100mV to +20mV; 0.1% Pluronic F-68.
Sequence of HEK-Cav1.2 (Q13936 whole entry): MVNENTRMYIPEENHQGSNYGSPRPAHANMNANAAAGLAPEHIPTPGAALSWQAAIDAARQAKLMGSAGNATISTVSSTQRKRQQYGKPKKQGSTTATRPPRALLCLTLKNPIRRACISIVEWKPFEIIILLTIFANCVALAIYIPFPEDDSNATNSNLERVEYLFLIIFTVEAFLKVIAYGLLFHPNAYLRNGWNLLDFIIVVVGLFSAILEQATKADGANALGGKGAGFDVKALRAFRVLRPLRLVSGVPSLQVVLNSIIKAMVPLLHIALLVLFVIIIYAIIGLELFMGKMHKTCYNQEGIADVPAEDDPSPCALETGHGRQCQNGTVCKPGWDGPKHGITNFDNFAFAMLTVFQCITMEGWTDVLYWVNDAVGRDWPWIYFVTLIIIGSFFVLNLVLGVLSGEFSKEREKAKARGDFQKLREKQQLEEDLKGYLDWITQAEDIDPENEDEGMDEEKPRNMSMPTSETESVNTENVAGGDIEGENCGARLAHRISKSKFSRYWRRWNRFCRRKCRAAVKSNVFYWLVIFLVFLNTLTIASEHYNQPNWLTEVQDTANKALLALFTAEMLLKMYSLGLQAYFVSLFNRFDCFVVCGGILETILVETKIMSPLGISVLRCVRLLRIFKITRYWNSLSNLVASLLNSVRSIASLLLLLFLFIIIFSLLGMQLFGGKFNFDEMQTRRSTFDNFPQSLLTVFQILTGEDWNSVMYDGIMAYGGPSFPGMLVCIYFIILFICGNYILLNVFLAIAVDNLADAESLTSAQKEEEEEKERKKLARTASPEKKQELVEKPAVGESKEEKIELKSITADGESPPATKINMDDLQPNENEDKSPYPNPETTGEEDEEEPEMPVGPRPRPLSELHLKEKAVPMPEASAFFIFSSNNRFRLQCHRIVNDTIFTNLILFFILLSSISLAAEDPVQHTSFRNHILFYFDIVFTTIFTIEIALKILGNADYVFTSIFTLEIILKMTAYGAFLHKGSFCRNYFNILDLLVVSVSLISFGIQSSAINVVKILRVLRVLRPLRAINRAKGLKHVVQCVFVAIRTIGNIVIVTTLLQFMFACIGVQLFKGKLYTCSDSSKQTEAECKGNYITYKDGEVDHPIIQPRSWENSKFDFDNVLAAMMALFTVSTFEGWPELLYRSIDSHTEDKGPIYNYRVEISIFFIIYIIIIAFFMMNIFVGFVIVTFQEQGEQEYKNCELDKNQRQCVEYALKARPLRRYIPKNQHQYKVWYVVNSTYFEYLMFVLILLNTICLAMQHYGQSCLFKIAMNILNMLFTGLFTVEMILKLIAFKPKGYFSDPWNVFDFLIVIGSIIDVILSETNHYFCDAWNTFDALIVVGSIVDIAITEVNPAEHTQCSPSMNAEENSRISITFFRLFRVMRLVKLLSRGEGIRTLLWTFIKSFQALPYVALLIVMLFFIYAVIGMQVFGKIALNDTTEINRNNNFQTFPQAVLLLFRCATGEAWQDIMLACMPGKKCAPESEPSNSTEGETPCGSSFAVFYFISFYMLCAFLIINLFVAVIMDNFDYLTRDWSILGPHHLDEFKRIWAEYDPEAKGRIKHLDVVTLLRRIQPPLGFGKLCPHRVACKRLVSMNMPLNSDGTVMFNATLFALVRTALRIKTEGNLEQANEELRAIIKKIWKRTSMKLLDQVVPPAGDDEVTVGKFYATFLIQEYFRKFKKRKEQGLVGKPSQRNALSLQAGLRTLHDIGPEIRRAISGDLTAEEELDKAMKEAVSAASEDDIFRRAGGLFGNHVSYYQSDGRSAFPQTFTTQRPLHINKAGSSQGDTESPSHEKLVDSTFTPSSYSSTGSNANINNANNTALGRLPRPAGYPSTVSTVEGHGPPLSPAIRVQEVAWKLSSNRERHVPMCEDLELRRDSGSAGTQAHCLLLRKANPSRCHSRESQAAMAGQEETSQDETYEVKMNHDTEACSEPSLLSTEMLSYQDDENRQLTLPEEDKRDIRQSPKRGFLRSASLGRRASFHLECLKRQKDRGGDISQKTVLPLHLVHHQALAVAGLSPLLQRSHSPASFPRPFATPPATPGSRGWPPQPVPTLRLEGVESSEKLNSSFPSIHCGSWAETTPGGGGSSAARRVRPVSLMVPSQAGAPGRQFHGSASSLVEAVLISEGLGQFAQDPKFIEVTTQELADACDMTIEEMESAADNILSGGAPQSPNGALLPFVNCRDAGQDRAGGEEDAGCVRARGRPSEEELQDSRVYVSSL
Sequence of HEK-Cav1.2 (Q08289 whole entry partner): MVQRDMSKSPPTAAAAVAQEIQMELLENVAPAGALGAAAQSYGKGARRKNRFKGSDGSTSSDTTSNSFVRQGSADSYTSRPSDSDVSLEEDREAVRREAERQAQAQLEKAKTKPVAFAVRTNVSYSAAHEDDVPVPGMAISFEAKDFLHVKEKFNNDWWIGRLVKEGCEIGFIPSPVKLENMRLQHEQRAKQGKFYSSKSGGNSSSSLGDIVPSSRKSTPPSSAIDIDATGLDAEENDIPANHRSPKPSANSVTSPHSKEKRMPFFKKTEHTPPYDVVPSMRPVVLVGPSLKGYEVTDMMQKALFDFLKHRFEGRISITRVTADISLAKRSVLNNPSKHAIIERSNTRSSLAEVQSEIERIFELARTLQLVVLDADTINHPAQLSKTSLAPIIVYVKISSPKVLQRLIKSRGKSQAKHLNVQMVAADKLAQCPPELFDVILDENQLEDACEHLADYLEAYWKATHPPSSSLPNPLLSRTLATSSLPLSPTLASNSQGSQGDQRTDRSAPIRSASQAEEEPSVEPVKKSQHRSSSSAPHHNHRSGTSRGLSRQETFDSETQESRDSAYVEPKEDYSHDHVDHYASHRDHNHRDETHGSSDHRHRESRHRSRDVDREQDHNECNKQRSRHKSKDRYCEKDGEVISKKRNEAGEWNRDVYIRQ
Sequence of HEK-Cav1.2 (P54289 25-946 partner limits assumed): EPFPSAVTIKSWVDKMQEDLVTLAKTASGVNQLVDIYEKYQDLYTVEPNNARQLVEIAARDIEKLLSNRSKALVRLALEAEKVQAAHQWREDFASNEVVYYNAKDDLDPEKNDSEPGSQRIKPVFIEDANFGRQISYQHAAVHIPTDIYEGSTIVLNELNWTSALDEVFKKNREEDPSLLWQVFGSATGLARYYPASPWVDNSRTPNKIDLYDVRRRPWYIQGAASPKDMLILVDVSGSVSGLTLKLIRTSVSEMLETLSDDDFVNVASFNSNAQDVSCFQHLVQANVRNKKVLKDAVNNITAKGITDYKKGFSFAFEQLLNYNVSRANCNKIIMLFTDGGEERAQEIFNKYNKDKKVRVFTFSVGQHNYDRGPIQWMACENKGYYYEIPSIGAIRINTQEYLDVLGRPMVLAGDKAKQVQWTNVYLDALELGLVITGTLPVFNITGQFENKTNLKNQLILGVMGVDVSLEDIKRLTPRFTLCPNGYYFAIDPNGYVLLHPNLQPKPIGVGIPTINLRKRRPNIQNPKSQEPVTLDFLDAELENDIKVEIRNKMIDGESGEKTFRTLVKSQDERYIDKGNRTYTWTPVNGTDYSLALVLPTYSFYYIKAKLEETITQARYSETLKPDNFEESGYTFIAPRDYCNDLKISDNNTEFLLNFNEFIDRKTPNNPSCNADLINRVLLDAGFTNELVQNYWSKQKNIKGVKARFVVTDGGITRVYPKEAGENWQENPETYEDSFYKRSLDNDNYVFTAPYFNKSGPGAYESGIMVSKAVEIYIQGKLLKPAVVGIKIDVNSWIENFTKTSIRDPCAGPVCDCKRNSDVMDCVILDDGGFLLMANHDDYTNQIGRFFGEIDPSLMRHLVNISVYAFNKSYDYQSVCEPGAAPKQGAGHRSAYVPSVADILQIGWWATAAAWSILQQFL
Sequence of HEK-Cav1.2 (P54289 947-1103 partner limits assumed): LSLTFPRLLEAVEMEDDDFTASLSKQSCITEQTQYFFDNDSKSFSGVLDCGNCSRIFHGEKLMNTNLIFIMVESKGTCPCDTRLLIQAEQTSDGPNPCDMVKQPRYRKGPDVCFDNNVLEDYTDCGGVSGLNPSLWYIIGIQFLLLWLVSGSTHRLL

Entries after “also recorded” stand apart in the source; their conditions may differ. Ends that are not written are not given here.

Consider one sequence from paper PMC10818749, “Toxicity Studies of Cardiac-Targeting Peptide Reveal a Robust Safety Profile” (Pharmaceutics, 2024).

T1 sequence (P08913 whole entry): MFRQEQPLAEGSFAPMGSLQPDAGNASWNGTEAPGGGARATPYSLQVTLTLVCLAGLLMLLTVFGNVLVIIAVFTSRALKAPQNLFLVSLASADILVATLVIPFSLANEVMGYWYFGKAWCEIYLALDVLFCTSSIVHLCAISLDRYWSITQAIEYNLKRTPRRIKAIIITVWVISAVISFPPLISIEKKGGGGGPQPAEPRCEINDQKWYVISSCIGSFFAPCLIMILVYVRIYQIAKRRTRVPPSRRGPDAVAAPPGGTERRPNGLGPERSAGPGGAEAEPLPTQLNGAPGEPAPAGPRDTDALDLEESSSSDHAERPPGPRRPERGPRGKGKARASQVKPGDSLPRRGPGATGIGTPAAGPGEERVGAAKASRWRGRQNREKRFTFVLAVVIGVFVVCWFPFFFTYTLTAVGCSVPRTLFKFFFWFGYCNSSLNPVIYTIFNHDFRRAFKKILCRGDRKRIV

APWHLSSQYSRT [CTP]: the “agonist or antagonist action” value on ADRA2A is “no significant action as either an agonist or antagonist”. Besides, the antagonist action entry on OPRM1 is recorded as “no antagonist action”. In the data set with B6-wildtype mice, the diastolic blood pressure result is on record as “No significant difference; also recorded: no significant (ns) change” and the systolic blood pressure entry is recorded as “No significant difference; also recorded: no significant (ns) change”. Also, the “Estimated IC50” value on HEK-Cav1.2 is given as “N/C (Not calculable, inhibition >25% was not observed.)”.
